# From patent US20180296523A1, “USE OF POLYMETHOXYLATED FLAVONES TO AMELIORATE CIRCADIAN RHYTHM DISORDERS” (THE BOARD OF REGENTS OF THE UNIVERSITY OF TEXAS SY, priority 2017, published 2018)
# “Also recorded” adds a separate entry of the source.
# Legend:
# [1] = system: PER2::Luc Clock^Δ19/Δ19 fibroblast cells; test: Reporter rhythm in homozygous Clock^Δ19/Δ19 reporter cells; assay type: cell-based, mouse; conditions: clock-disrupted homozygous Clock^Δ19/Δ19 cells
# [2] = system: WT and Clock^Δ19/Δ19 mice; test: Circadian locomotor (wheel-running) activity; assay type: in vivo, mouse
# From the text: RC-fed WT, HFD-fed WT and Clock^[…]/[…] mice with NOB or Vehicle treatment were used for circadian locomotor activity experiments. Briefly, mice were first maintained for at least 2 weeks in a 12 hr:12 hr light:dark (LD) cycle, then released into the constant darkness, free-running condition. The mice were then maintained in constant darkness for another 2 weeks. Wheel-running data was downloaded as VitalView data files and analyzed with the […] and Actogram J program (Schmid et al., 2011; Zheng et al., 1999).
# [3] = system: db/db and db/db Clock^Δ19/Δ19 mice; test: db/db diabetic mice and db/db Clock^Δ19/Δ19 double-mutant mice; assay type: in vivo, mouse
# Experimental: Weekly body weight was monitored in different treatment mice for 10 weeks. Body mass composition was measured at the end of experiments using a minispec mqNMR spectrometer (Bruker Optics, Texas) (Garcia et al., 2013). A control group of mice were fed with regular chow diet (Purina 5001) in parallel with the two treatment groups in HFD. For db/db and db/db Clock^Δ19/Δ19 mice, male mice at 6-8 weeks of age were group-housed (2-3/cage) and maintained on regular chow diets. Mice were subjected to oral gavage with either DMSO or NOB as described above.
# Serum samples were obtained at ZT2 from treated mice as previously described (Jeong et al., 2015). Hepatic triglyceride and cholesterol were extracted as previously described (Liu et al., 2012). The triglyceride and cholesterol levels in liver and serum were assessed by Serum Triglyceride Determination Kit (Sigma) and Cholesterol Assay Kit (Cayman), respectively. The assay plates were read by a TECAN M200 instrument (Tecan) following the manufacturer's instructions.
# Glucose tolerance test (GTT) and insulin tolerance test (ITT) were performed largely as described (He et al., 2015; Jeong et al., 2015). Briefly, after overnight and 5-hr fasting, GTT and ITT were conducted at ZT2 and ZT8 respectively. Glucose levels were measured from tail blood before and 15, 30, 60, or 120 min after injection of either 1 g/kg glucose or 0.75 U/kg insulin (Sigma) at ZT2 and ZT8 respectively by using the ONETOUCH UltraMini blood glucose monitoring system (LifeScan). Serum insulin levels were measured with the Rat/Mouse Insulin Elisa kit (Millipore) according to the manufacturer's instructions. The plasma samples were collected at ZT2 as described above for lipid assays.
# [4] = system: core clock genes in PER2::LucSV cells; test: Real-time qPCR and Western blot of clock genes in PER2::LucSV cells; assay type: cell-based, mouse
# Experimental: For qPCR analysis, cells were split into 6-well plates at an initial density of 3×10^5 cells and incubated for 2-4 days before synchronization (5 μM Fsk or 100 nM Dex) followed by compound treatment. RNA samples were prepared by using PureXtract RNAsol for cDNA synthesis and real-time PCR (GenDEPOT) was performed with a MaxPro3000 Thermocycler (Agilent). qPCR primers used are listed in the table shown in Example 4. Whole cell lysates from cells similarly grown and treated in 60 mm dishes and tissue extracts were prepared as described (Yoo et al., 2013) and subjected to Western blot analysis (GenDEPOT). Antibodies for REV-ERBα (Pierce and Cell Signaling), PER1 (Lee et al., 2001) and other clock proteins (Yoo et al., 2013) were used.
# [5] = system: clock genes and metabolic output genes in mouse liver; test: Liver gene expression in HFD-fed WT mice (qPCR, Western blot, microarray); assay type: in vivo
# Experimental: For qPCR analysis, cells were split into 6-well plates at an initial density of 3×10^5 cells and incubated for 2-4 days before synchronization (5 μM Fsk or 100 nM Dex) followed by compound treatment. RNA samples were prepared by using PureXtract RNAsol for cDNA synthesis and real-time PCR (GenDEPOT) was performed with a MaxPro3000 Thermocycler (Agilent). qPCR primers used are listed in the table shown in Example 4. Whole cell lysates from cells similarly grown and treated in 60 mm dishes and tissue extracts were prepared as described (Yoo et al., 2013) and subjected to Western blot analysis (GenDEPOT). Antibodies for REV-ERBα (Pierce and Cell Signaling), PER1 (Lee et al., 2001) and other clock proteins (Yoo et al., 2013) were used. Total RNAs prepared from liver tissues from RC-fed, Vehicle-treated and HFD-fed, Vehicle or NOB-treated WT mice for 10 weeks were reverse transcribed into cDNAs, which were then biotin-UTP labeled and hybridized to the Illumina mouse WG-6v2.0 Expression BeadChip. Genes with statistically significant fold change differences was clustered using centered correlation (Cluster 3.0) and then visualized as a heat map on Tree View. Moreover, genes with statistically significant differences derived from microarray analyses were imported into the Ingenuity Pathway Analysis (IPA, http://www.ingenuity.com). In IPA, differentially expressed genes are mapped to genetic networks in the Ingenuity Knowledge Database to generate a set of network and then ranked by score. Heatmaps were generated by using Cluster 3.0 program. ChIP-seq data analysis was conducted as previously described (Koike et al., 2012). The data discussed in this publication have been deposited in NCBI's Gene Expression Omnibus (Edgar et al., 2002) and are accessible through GEO Series accession number GSE78848. To characterize the molecular basis of nobiletin action in HFD-fed WT mice, studies focused on a major metabolic organ, the liver, in which we observed a strong protection by nobiletin was observed. Specifically, total RNAs prepared from liver tissues from RC.Veh and HF.Veh or HF.nobiletin WT mice for 10 weeks were reverse transcribed into cDNAs, which were then biotin-UTP labeled and hybridized to the Illumina mouse WG-6v2.0 Expression BeadChip. The data discussed in this publication have been deposited in the National Center for Biotechnology Information's Gene Expression Omnibus (GEO) and are accessible through GEO Series accession number GSE78848. Real-time qPCR and western blotting analyses of circadian gene expression were conducted as previously described (Yoo et al., 2013). Primers used were as follows: […]
# Cps1 gene = conditions: Clock^Δ19/Δ19 mutant mice; cited from earlier work
# [6] = HF.nobiletin versus HF.Veh mice
smiles,measurement,setting,value
COc1ccc(-c2cc(=O)c3c(OC)c(OC)c(OC)c(OC)c3o2)cc1OC [nobiletin],restoring reporter rhythm,[1],ineffective in restoring the rhythm; also recorded: not able to rescue reporter rhythms
same,wheel-running activity levels,[2]; HFD-fed Clock^Δ19/Δ19 mice,no significant difference in activity levels
same,wheel-running activity levels,"[2]; HFD-fed WT mice, vs control treatment",greatly increased wheel-running activity levels
same,wheel-running activity and periodicity,[2]; RC-fed WT C57/6J mice,normal wheel-running activity and periodicity
same,overall metabolic response to treatment,"[3]; db/db Clock^Δ19/Δ19 double-mutant mice, in contrast to db/db",markedly attenuated response
same,circulating insulin levels,[3]; db/db Clock^Δ19/Δ19 mutant mice,strongly reduced circulating insulin levels
same,circulating insulin levels,[3]; db/db mice,strongly reduced circulating insulin levels
same,fasting glucose levels,[3]; db/db mice,lowered fasting glucose levels
same,glucose tolerance (GTT),[3]; db/db mice,improved
same,insulin sensitivity (ITT),[3]; db/db mice,improved
same,serum total cholesterol (TC),[3]; db/db mice,reduced
same,serum total triglyceride (TG),[3]; db/db mice,reduced
same,body weight gain,"[3]; db/db mice, RC, 10 weeks",strongly blunted body weight gain
same,CRY1 protein abundance,[4],slight trend of greater protein abundance
same,CRY1 transcript level,[4],markedly reduced transcript level
same,Pert transcript levels,[4],moderately altered and reduced at CT20
same,expression of other core clock genes,[4],altered
same,PER2 proteins,[4]; Western blot,accumulate to greater levels
same,"ROR target genes (e.g., Cyp7b1, IkBa, and Gck)","[5]; DIO mouse liver, relative to control treatment",induced
same,circadian clock transcript oscillations in liver,[5]; [6],improved circadian clock transcript oscillations
same,clock protein rhythms in liver,[5]; [6],largely restored clock protein rhythms
same,transcript expression of Cidec/Fsp27 in liver,"[5]; HFD-fed WT mice, qPCR",reverted back to baseline levels
same,"expression of genes involved in gluconeogenesis and glycolysis (e.g., Pdk4 and Pkm2)",[5]; liver,altered the expression
same,transcriptional induction of the Cps1 gene,Cps1 gene,impaired
